Legend:
C2C12 cells = assay: Gene expression levels in treated cultured cells; assay type: cell-based, mouse
Procedure: Mouse striated muscle derived cells, i.e., C2C12 cells, were cultured and treated with OK-1, ICG-001, or C-82. Gene expression levels of cells treated with OK-1, ICG-001, or C-82, and untreated cells are compared.

[1] = Body weight and behavior during the dosing period; assay type: in vivo, mouse; conditions: intraperitoneal, twice a week over three months, 20 mg/kg/day; young and old mice
Procedure: (§1) OK-1 manufactured in Manufacturing Example 1 was intraperitoneally administered to young and old mice twice a week over three months. The dosage was 20 mg/kg/day.

old mice = assay: Muscle mass by MRI (volume of right gastrocnemius muscle/soleus muscle), with/without treadmill exercise; assay type: in vivo, mouse
Procedure: OK-1 was then intraperitoneally administered to each mouse twice a week at 20 mg/kg/day over 8 weeks (i.e., until reaching 23 week old and 88 week old, respectively). Treadmill exercise was conducted three times a week at 8 m/minute for 5 minutes→15 m/minute for 35 minutes while administering OK-1 twice a week at 20 mg/kg/day over 5 weeks (i.e., until reaching 28 week old and 93 week old, respectively). The muscle mass was then measured with the following equipment and conditions through MRI (FIG. 1B). MRI (MRminiSA1545, Japan REDOX) (magnetic flux density: 1.5 tesla (permanent magnet) (temporal resolution: 100 ns) was used to capture images of the lower limbs of the mice. The recovered data was converted into dicom data, and the volume of right gastrocnemius muscle/soleus muscle was quantified with Osirix Lite.

old mice (C57BL/6J) = assay: Treadmill test of muscle strength (endurance) in young and old mice; assay type: in vivo, mouse; conditions: intraperitoneal, twice a week over three months, 20 mg/kg/day; young (15-week) and old (79-week) mice
Description: Decrease in endurance in old mice In order to confirm that a decrease in muscle strength is observed in mouse models (C57BL/6J) (purchased from Oriental Yeast), the muscle strength (endurance) in 15-week old young mice and 79-week-old old mice was investigated in a treadmill test in accordance with the following (FIG. 1A). Prior to recording the performance, mice were trained for 3 days to acclimate the mice to the equipment. Electric stimulation grid was adjusted to 1 mA, and the gradient was set to 15 degrees. On the first day of training, mice were induced to walk for 10 minutes at a rate of 10 m/minute, allowed to rest for 10 minutes, and then induced to walk for 10 minutes at a rate of 10 m/minute on a treadmill. On day 2 and day 3, the first two steps were the under the same conditions as day 1, and then the mice were induced to start walking at 10 m/minute. The speed was increased by 1 m/minute until reaching the maximum speed of 20 m/minute. On day 4, the maximum exercise endurance was measured. Six mice were placed on a treadmill, which was started at a belt speed of 5 m/minute for 5 minutes to let the mice warm up. The speed was increased 1 m/minute until reaching the maximum speed of 20 m/minute. After making the mice run for 5 minutes, the speed was increased from 20 m/minute to 21 m/minute for 10 minutes. The mice were then forced to run at 22 m/minute until stalling on the electric stimulation grid for 10 seconds. The distance traveled until stalling for 10 seconds was measured.
as §1
74-week old mice (C57B16/J) were purchased from Oriental Yeast. […] Muscle strength (endurance) and grip strength of mice administered with C-82 were then measured through a treadmill test and smart grip strength meter for rats and mice (Muromachi Kikai Co., Ltd.), respectively. […]

[2] = system: Activin Receptor and ACVR2B; conditions: cited from earlier work

Molecule: O=C1[C@H](Cc2ccc(O)cc2)N2C(=O)CCN(C(=O)NCc3ccccc3)[C@H]2CN1Cc1cccc2ccccc12 [ICG-001]
- gene expression levels versus untreated cells (C2C12 cells): change in gene expression similar to Example 2

Molecule: O=C1[C@H](Cc2ccc(O)cc2)N2C(=O)CCN(C(=O)NCc3ccccc3)[C@H]2CN1Cc1cccc2ccccc12 [compound 8]
- change in body weight and behavioral abnormality during the dosing period [1]: a significant change in body weight and behavioral abnormality were not observed
- muscle mass (MRI), combined use of administration with exercise (old mice; 20 mg/kg/day twice a week plus treadmill exercise three times a week over 5 weeks): muscle mass significantly recovers synergistically
- muscle mass (MRI) (old mice; intraperitoneal 20 mg/kg/day twice a week over 8 weeks, then 5 further weeks): increases muscle mass in old mice
- muscle strength (endurance) through a treadmill test (old mice (C57BL/6J)): increase in muscle strength due to administration of compound 8 was observed specifically in old mice

B1: Bimagrumab: monoclonal antibodies (bimagrumab) developed by targeting Activin Receptor and ACVR2B (antibody, chains of the INN, looked up, V domains shown)
VH: QVQLVQSGAEVKKPGASVKVSCKASGYTFTSSYINWVRQAPGQGLEWMGTINPVSGSTSYAQKFQGRVTMTRDTSISTAYMELSRLRSDDTAVYYCARGGWFDYWGQGTLVTVSS
VL: QSALTQPASVSGSPGQSITISCTGTSSDVGSYNYVNWYQQHPGKAPKLMIYGVSKRPSGVSNRFSGSKSGNTASLTISGLQAEDEADYYCGTFAGGSYYGVFGGGTKLTVL
- muscle mass ([2]; background statement): promotes muscle differentiation to increase muscle mass
- sarcopenia symptoms including the gait speed and grip strength ([2]; phase 2 trial completed, development discontinued in 2018): has not resulted in dramatic improvement in sarcopenia symptoms including the gait speed and grip strength
